Assay results from patent US6147076A, “Analogues of N-acetylardeemin, method of preparation and uses thereof” (priority 1996, dated 2000).
“And” between values parts separate entries of the source, which are not always exact repeats. Equal entries are not always repeated. Where two headings read alike, the source gives them in different places.

Tests used:
[1] = tested on: DC-3F hamster lung cells; experiment: Cytotoxicity toward DC-3F hamster lung cells
[2] = tested on: DC-3F/ADII cells; experiment: cells; conditions: Mesocricetus auratus, DC3F
[3] = tested on: DC-3F/ADX cells; experiment: Cytotoxicity toward DC-3F/ADX cells; type: cell-based, hamster
[4] = tested on: CCRF-CEM/VM-1 cells; experiment: Cytotoxicity toward VM-26-resistant CCRF-CEM/VM-1 cells (mutated Topo II gene); type: cell-based, human; conditions: for IC50: Table 6B, CCRF-CEM/VM-1, read-out: IC50 of reversing agent
[5] = tested on: CCRF-CEM/VBL100 cells; experiment: cells; conditions: Homo sapiens, read-out: IC50 of reversing agent, Table 6B, CCRF-CEM/VBL
[6] = tested on: CCRF-CEM cells; experiment: Cytotoxicity / growth inhibition of CCRF-CEM leukemic cells
[7] = tested on: P388/0 tumor; conditions: DMNAA 50.0 mg/kg
Experimental: (§7) ^a Male BDF mice were inoculated with P388/O, 10^6 cell/mouse,
(§8) i.p. on day 0; and started treatment on day 1, i.p., Q5Dx5, besides mice
(§9) with dose VBL 3.0 and VBL 3.0 mg/kg + DMNAA 50 mg/kg, only one injection
(§10) i.p., on day 1. There were five mice at every dose and ten in the control

[8] = tested on: CCRF-CEM/VLB-100 cells; experiment: Intracellular accumulation of [3H]vinblastine in CCRF-CEM/VLB-100 cells; type: cell-based, human; conditions: 30 μM
Experimental: (§1) *Cells were preloaded with [^3 H]
(§2) times (or without wash) with 100 ml cold medium to remove extracellular
(§3) with or without a reverse prenyl compound or an MDRreversing agent. Cells
(§4) were then separated from radioactive medium by microfuge oillayer method.
(§5) Extracellular space counts carried down # by cells (^3 HInulin space
(§6) were subtracted from the total radioactive counts.

[9] = tested on: DC-3F/ADII cells
[10] = tested on: CCRF-CEM cells; experiment: Intracellular accumulation of [3H]vinblastine in CCRF-CEM cells; type: cell-based, human; conditions: 30 μM
Experimental: as §1, §2, §3, §4, §5, §6

[11] = tested on: P388/0; experiment: Survival time evaluation for BDF mice bearing P388/0; conditions: for survival time: individual mice
Excerpt: ^a Male BDF mice were inoculated with p388/0, 10E6 cells/mouse, I.P.

[12] = tested on: P388/DX leukemic cells; experiment: Drug combination of adriamycin and 5-N-acetyl-ardeemin against P388/DX cell growth (XTT); type: cell-based; conditions: drug alone
Excerpt: | microplate, 25,000 cell/well, N = 2.

[13] = tested on: P388/0 tumor; experiment: Combination therapy of adriamycin, vinblastine and des-Me-N-acetyl-ardeemin in B6D2F1 mice bearing P388/0 tumor; conditions: for Days survived: individual mice 1-5, listed as Adr.
Experimental: as §7, §8, §9, §10

[14] = tested on: P388/DX tumor; experiment: Combination therapy of adriamycin & 5-N-acetyl-ardeemin or verapamil in B6D2F1 mice bearing P388/DX tumor; conditions: for Days survived: individual mice 1-5;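 as to all read-outs here: male BDF mice implanted intraperitoneally with P388/DX cells, 10^6 per mouse, dosed from day 1 on a QDX4, QWX2 schedule, five mice per dose group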
Excerpt: ^a Male BDF mice were inoculated P388/DX, 10^6 cells/mouse, i.p.
starting day 1, QDX4, QWX2. There were five mice at every dose and ten

[15] = tested on: P388 leukemic cells; experiment: Drug combination of adriamycin and 5-N-acetyl-ardeemin against P388 cell growth (XTT); conditions: Mus musculus, P388, drug alone
Excerpt: microplate, 15,000 cell/well, N = 2. Platting cells on day 1, add drugs o
day 2 and XTT assay on day 5.

[16] = tested on: P388/O tumor; experiment: Combination therapy of adriamycin & 5-N-acetyl-ardeemin or verapamil in B6D2F1 mice bearing P388/O tumor; conditions: for Days survived: individual mice 1-5;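 as to all read-outs here: male BDF mice carrying P388/O given intraperitoneally, dosing begun on day 1 on a QDX4, QWX2 schedule, five animals per dose level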
Excerpt: ^a Male BDF mice were inoculated P388/O, 10^6 cells/mouse, i.p. a
starting day 1, QDX4, QWX2.

[17] = tested on: P388/DX; experiment: Survival time evaluation for BDF mice bearing P388/DX; conditions: for survival time: individual mice
[18] = tested on: CCRF/VM-1 cells; experiment: Intracellular accumulation of VP-16 in CCRF/VM-1 cells; conditions: Homo sapiens, 0.5 h, read-out: increase of VP-16 accumulation
[19] = tested on: CCRF-CEM/VBL100 cells
[20] = tested on: CCRF-CEM cells; experiment: Influx of [3H]VP-16 in CCRF-CEM cells; type: cell-based, human
[21] = tested on: CCRF-CEM cells
[22] = tested on: CCRF-CEM cells; experiment: Accumulation of VP-16 in CCRF-CEM cells preloaded with [3H]VP-16; conditions: Homo sapiens, 0.5 h, read-out: increase of intracellular accumulation of VP-16
[23] = tested on: DC-3F hamster lung cells; conditions: dc-3f cells
[24] = tested on: HCT116(VM)46 cells; experiment: Cytotoxicity (XTT, 72 hr) in multidrug resistant HCT116(VM)46 cells; type: cell-based; conditions: IC50 HCT116(VM)46 / HCT116; 4320 min
Experimental: All drug exposures were for 72 hr and cytotoxicity was measured by XTT tetrazolium dye assay.

`C=CC(C)(C)C12CC3c4nc5ccccc5c(=O)n4CC(=O)N3C1N(C(C)=O)c1ccccc12` (stereo not drawn) [5-N-Ac-8-desmethyl-Ardeemin, N-Acetyl-8-desmethyl-ardeemin] gave an IC50 ([1]; Mesocricetus auratus, DC3F, read-out: IC50 (A), mean ± spread, mean of the determinations) of 29.3 ± 8.38 µM, an IC50 ([1]; Mesocricetus auratus, DC3F, read-out: IC50 (A), single determinations) of 37.7 µM and an IC50 ([1]; read-out: IC50 (A), single determinations) of 20.9 µM. The IC50 ([2]; read-out: IC50 (B)) was 14.6 µM, the IC50 ([3]; DC3F/ADX, DC-3F/ADX) was 3.98 µM and the “(C)/(A)” value ([3]; IC50 ratio DC-3F/ADX to DC-3F, * collaterally sensitive) was 0.14 X. For the same compound, the IC50 ([4]; Homo sapiens, CCRF-CEM) was 35.8 µM, the IC50 [5] was 32.9 µM and the IC50 ([6]; Homo sapiens, read-out: IC50 of reversing agent, Table 6B, CCRF-CEM) was 22.7 µM. For the same compound, the “% ILS” value [7] was “+1%”, the MST [7] was 8.40 days and the “[3H]vinblastine accumulation” value ([8]; washed) was 7.66 fmole/10^3 cells. For the same compound, the “[3H]vinblastine accumulation” value ([8]; without wash) was 33.53 fmole/10^3 cells, the “(B)/(A)” value ([9]; IC50 ratio DC-3F/ADII to DC-3F, * collaterally sensitive) was 0.50 X and the “[3H]vinblastine accumulation” value ([10]; washed) was 29.33 fmole/10^3 cells. For the same compound, the “[3H]vinblastine accumulation” value ([10]; without wash) was 33.13 fmole/10^3 cells.
With `COc1cccc2c1C(=O)c1c(O)c3c(c(O)c1C2=O)C[C@@](O)(C(=O)CO)C[C@@H]3O[C@H]1C[C@H](N)[C@H](O)[C@H](C)O1` [Adriamycin, adriamycin] the IC50 ([1]; Mesocricetus auratus, DC3F, read-out: IC50 for inhibiting cell growth, Table 7, DC-3F) was 0.03 µM, the “% ILS” value ([11]; adriamycin 0.333 mg/kg) was 85% and the MST ([11]; adriamycin 0.333 mg/kg) was 13.75. For the same compound, the survival time ([11]; adriamycin 0.333 mg/kg) was 12.25 and 13.0 and 14.25 and 15.5, the “% ILS” value ([11]; adriamycin 1.0 mg/kg) was 129% and the MST ([11]; adriamycin 1.0 mg/kg) was 17.0. For the same compound, the survival time ([11]; adriamycin 1.0 mg/kg) was 14.25 and 15.5 and 18.0 and 20.25, the “% ILS” value ([11]; adriamycin 3.0 mg/kg) was 145% and the MST ([11]; adriamycin 3.0 mg/kg) was 18.19. The survival time ([11]; adriamycin 3.0 mg/kg) was 16.0 and 17.25 and 19.25 and 20.25, the IC50 [12] was 2.14 µM and the IC50 ([2]; read-out: IC50 for inhibiting cell growth, Table 7, DC-3F/SDII) was 0.38 µM. For the same compound, the “% ILS” value ([13]; Adr. 3.0 mg/kg) was “+63%”, the MST ([13]; Adr. 3.0 mg/kg) was 13.60 days and the Days survived ([13]; Adr. 3.0 mg/kg) was 10.5 days and 13.5 days and 14.5 days and 15.0 days. The “% ILS” value ([13]; Adr. 5.0 mg/kg) was “+81%”, the MST ([13]; Adr. 5.0 mg/kg) was 15.10 days and the Days survived ([13]; Adr. 5.0 mg/kg) was 10.5 days and 14.0 days and 16.0 days and 17.0 days and 18.0 days. The “% ILS” value ([14]; Adr. 0.5 mg/kg) was “+49%”, the MST ([14]; Adr. 0.5 mg/kg) was 11.3 days and the Days survived ([14]; Adr. 0.5 mg/kg, listed as Adr.) was 7.5 days and 10.5 days and 12.25 days and 14.0 days. The “% ILS” value ([14]; Adr. 1.0 mg/kg) was “+75%”, the MST ([14]; Adr. 1.0 mg/kg) was 13.25 days and the Days survived ([14]; Adr. 1.0 mg/kg, listed as Adr.) was 11.5 days and 12.25 days and 13.25 days and 16.0 days. The MST ([14]; Adr. 2.0 mg/kg) was 15.55 days, the Days survived ([14]; Adr. 2.0 mg/kg, listed as Adr.) was 14.0 days and 15.0 days and 15.25 days and 16.5 days and 17.0 days and the “% ILS” value ([14]; Adr. 3.0 mg/kg) was “+130%”. The MST ([14]; Adr. 3.0 mg/kg) was 17.4 days, the deaths of toxicity ([14]; Adr. 3.0 mg/kg, day 14) was “Two mice died of toxicity of drugs” and the Days survived ([14]; Adr. 3.0 mg/kg, listed as Adr.) was 14.0 days and 17.5 days and 21.0 days. The IC50 [15] was 0.228 µM, the “% ILS” value ([16]; Adr 0.5 mg/kg) was “+128%” and the MST ([16]; Adr 0.5 mg/kg) was 17.3 days. For the same compound, the Days survived ([16]; Adr 0.5 mg/kg, listed as Adr) was 15.5 days and 16.0 days and 17.0 days and 18.0 days and 20.0 days, the “% ILS” value ([16]; Adr 1.0 mg/kg) was “+152%” and the MST ([16]; Adr 1.0 mg/kg) was 19.1 days. The Days survived ([16]; Adr 1.0 mg/kg, listed as Adr) was 16.0 days and 19.0 days and 20.5 days and 21.0 days, the “% ILS” value ([16]; Adr 2.0 mg/kg) was “+178%” and the MST ([16]; Adr 2.0 mg/kg) was 21.1 days. The Days survived ([16]; Adr 2.0 mg/kg, listed as Adr) was 19.0 days and 20.5 days and 21.0 days and 22.5 days, the “% ILS” value ([16]; Adr 3.0 mg/kg) was “+181%” and the MST ([16]; Adr 3.0 mg/kg) was 19.8 days. The deaths of toxicity ([16]; Adr 3.0 mg/kg, day 12.5 and 15) was “Two mice died of toxicity of drugs”, the Days survived ([16]; Adr 3.0 mg/kg, listed as Adr) was 12.5 days and 16.0 days and 20.5 days and 24.6 days and 26.5 days and the “% ILS” value ([17]; adriamycin 0.333 mg/kg) was 24%. The MST ([17]; adriamycin 0.333 mg/kg) was 9.0, the survival time ([17]; adriamycin 0.333 mg/kg) was 8.0 and 8.5 and 9.5 and 10.0 and the “% ILS” value ([17]; adriamycin 1.0 mg/kg) was 37%. The MST ([17]; adriamycin 1.0 mg/kg) was 9.75, the survival time ([17]; adriamycin 1.0 mg/kg) was 9.0 and 10.0 and 10.25 and 10.5 and the “% ILS” value ([17]; adriamycin 3.0 mg/kg) was 48%. For the same compound, the MST ([17]; adriamycin 3.0 mg/kg) was 10.75 and the survival time ([17]; adriamycin 3.0 mg/kg) was 10.0 and 11.5 and 12.25.
`C=CC(C)(C)C12CC3c4nc5ccccc5c(=O)n4C(C)C(=O)N3C1Nc1ccccc12` (stereo not drawn) [Ardeemin] showed an IC50 ([1]; Mesocricetus auratus, DC3F, relative cytotoxicity, DC-3F) of 10.2 µM, a fold induction at 20 µM [18] of 1.51 and an IC90 ([4]; ccrf-cem/vm-1 cells) of 88.8 µM. For the same compound, the IC90 ([19]; ccrf-cem/vbl100 cells) was 27.9 µM, the activation at 20 µM ([20]; Homo sapiens, CCRF-CEM, 0.5 h, 20 μM, 30 min, 37° C., read-out: increase of VP-16 accumulation) was 33% and the IC90 [21] was 65.7 µM. The IC50 ([6]; Homo sapiens, human leukemic CCRF-CEM cells) was 20.8 µM, the “[3H]vinblastine accumulation” value ([8]; washed) was 5.42 fmole/10^3 cells and the “[3H]vinblastine accumulation” value ([8]; without wash) was 22.84 fmole/10^3 cells. The fold induction at 20 µM [22] was 3.1, the IC90 ([9]; dc-3f/adii cells) was 24.6 µM and the “[3H]vinblastine accumulation” value ([10]; washed) was 29.94 fmole/10^3 cells. The “[3H]vinblastine accumulation” value ([10]; without wash) was 34.68 fmole/10^3 cells, the IC80 [23] was 10.2 µM and the IC90 [23] was 30.9 µM.
For `COc1ccc(CCN(C)CCCC(C#N)(c2ccc(OC)c(OC)c2)C(C)C)cc1OC` (stereo not drawn) [Verapamil, verapamil], the IC50 [4] was 118 µM, the IC50 ([19]; read-out: IC50 of reversing agent, Table 6B, CCRF-CEM/VBL) was 118 µM and the VP-16 accumulation ([20]; 100 μM, in words) was “also increased VP-16 accumulation”. The “% ILS” value ([14]; VPML 70 mg/kg (then 35)) was “+5%”, the MST ([14]; VPML 70 mg/kg (then 35)) was 7.9 days and the Days survived ([14]; VPML 70 mg/kg (then 35)) was 6.5 days and 7.25 days and 8.25 days and 9.25 days. The IC50 ([6]; read-out: IC50 of reversing agent, Table 6B) was 296 µM, the collateral sensitivity ([9]; in words) was “Collateral sensitivity is also observed” and the “% ILS” value ([16]; VPML 70 mg/kg (then 35)) was “+1%”. The MST ([16]; VPML 70 mg/kg (then 35)) was 7.7 days and the Days survived ([16]; VPML 70 mg/kg (then 35)) was 7.0 days and 8.0 days and 8.6 days.
Compound `CC(=O)O[C@H]1C(=O)[C@@]2(C)[C@H]([C@H](OC(=O)c3ccccc3)[C@]3(O)C[C@H](OC(=O)[C@H](O)[C@@H](NC(=O)c4ccccc4)c4ccccc4)C(C)=C1C3(C)C)[C@]1(OC(C)=O)CO[C@@H]1C[C@@H]2O` [paclitaxel] has a R/S ratio [24] of 132.
